ChEMBL document CHEMBL6120947, “Synthesis and Antiosteoporotic Characterization of Diselenyl Maleimides: Discovery of a Potent Agent for the Treatment of Osteoporosis by Targeting RANKL” (J Med Chem, 2024)
Active and inactive are the calls of the source. No cut-off for these calls is given here.

Key:
BMDM [1] = assay: Inhibition of osteoclastogenesis in M-CSF/RANKL-induced osteoclast differentiation in C57BL/6J mouse BMDM cells assessed as reduction in bone resorption area measured after 6 days by hydroxyapatite resorption assay; type: functional, cell-based; settings: dose <= 2.0 µM, time 6.0 day
[2] = molecular target: T1, Tumor necrosis factor ligand superfamily member 11 (Homo sapiens) (UniProt O14788); assay: Binding affinity to RANKL (unknown origin) incubated for 15 mins by RED-NHS dye based MST assay
T1 sequence (whole entry): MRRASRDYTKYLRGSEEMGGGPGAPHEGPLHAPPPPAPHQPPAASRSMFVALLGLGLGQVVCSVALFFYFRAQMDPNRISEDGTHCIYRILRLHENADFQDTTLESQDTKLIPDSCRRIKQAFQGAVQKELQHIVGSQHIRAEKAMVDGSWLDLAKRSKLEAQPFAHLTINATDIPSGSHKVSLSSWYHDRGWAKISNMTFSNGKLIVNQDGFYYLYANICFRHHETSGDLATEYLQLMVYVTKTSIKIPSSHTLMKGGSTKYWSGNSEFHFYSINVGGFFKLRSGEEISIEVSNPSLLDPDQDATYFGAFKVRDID

MC3T3-E1 [3] = assay: Effect on osteoblast differentiation in mouse MC3T3-E1 cells assessed as change in Runx2 level at 0.5 to 2 uM incubated for 7 days by Western blot analysis; type: functional, cell-based; settings: dose 0.5-2 µM, time 7.0 day
MC3T3-E1 [4] = assay: Effect on osteoblast mineralization in mouse MC3T3-E1 cells assessed as change in calcium nodules at 0.5 to 2 uM incubated for 7 days by ARS staining based analysis; type: functional, cell-based; settings: dose 0.5-2 µM, time 7.0 day
Mus musculus [5] = assay: Anti-osteoporosis effect in OVX-induced osteoporosis C57BL/6 mouse model assessed as increase in Tb.N value at 10 mg/kg, po administered every other day for 8 weeks by micro-CT analysis; type: functional, organism-based
Mus musculus [6] = assay: Anti-osteoporosis effect in OVX-induced osteoporosis C57BL/6 mouse model assessed as improvement of bone surface in femur at 10 mg/kg, po administered every other day for 8 weeks by H and E staining based analysis; type: functional, organism-based
MC3T3-E1 [7] = assay: Effect on osteoblast differentiation in mouse MC3T3-E1 cells assessed as change in ALP level at 0.5 to 2 uM incubated for 7 days by Western blot analysis; type: functional, cell-based; settings: dose 0.5-2 µM, time 7.0 day
BMDM [8] = assay: Inhibition of osteoclastogenesis in M-CSF/RANKL-induced osteoclast differentiation in C57BL/6J mouse BMDM cells assessed as decrease in c-Fos mRNA level at 1 uM measured for 5 days by qRT-PCR analysis; type: functional, cell-based; settings: time 5.0 day
BMDM [9] = assay: Inhibition of osteoclastogenesis in M-CSF/RANKL-induced osteoclast differentiation in C57BL/6J mouse BMDM cells assessed as reduction in TRAP mRNA level measured after 5 days by qRT-PCR analysis; type: functional, cell-based; settings: dose <= 2.0 µM, time 5.0 day
BMDM [10] = assay: Inhibition of osteoclastogenesis in M-CSF/RANKL-induced osteoclast differentiation in C57BL/6J mouse BMDM cells assessed as reduction in c-Fos level measured after 5 days by Western blot analysis; type: functional, cell-based; settings: dose <= 2.0 µM, time 5.0 day
BMDM [11] = assay: Inhibition of osteoclastogenesis in M-CSF/RANKL-induced osteoclast differentiation in C57BL/6J mouse BMDM cells assessed as decrease in NFATc1 mRNA level at 1 uM measured for 5 days by qRT-PCR analysis; type: functional, cell-based; settings: time 5.0 day
[12] = Toxicity in OVX-induced osteoporosis C57BL/6 mouse model assessed as body weight change at 10 mg/kg, po administered every other day for 8 weeks; type: organism-based; settings: in vivo, 1344 h
[13] = Toxicity in OVX-induced osteoporosis C57BL/6 mouse model assessed as pathological change in heart at 10 mg/kg, po administered every other day for 8 weeks by H and E staining based analysis; type: organism-based; settings: in vivo, 1344 h
[14] = molecular target: T2, Tumor necrosis factor ligand superfamily member 11 (Homo sapiens, UniProt O14788); assay: Binding affinity to CM5 sensor chip-immobilized RANKL (unknown origin) assessed as dissociation constant by SPR analysis
T2 sequence (O14788 whole entry): T1 sequence (whole entry)

BMDM [15] = assay: Inhibition of osteoclastogenesis in M-CSF/RANKL-induced osteoclast differentiation in C57BL/6J mouse BMDM cells assessed as reduction in DC-STAMP mRNA level measured after 5 days by qRT-PCR analysis; type: functional, cell-based; settings: dose <= 2.0 µM, time 5.0 day
BMDM [16] = assay: Inhibition of osteoclastogenesis in M-CSF/RANKL-induced osteoclast differentiation in C57BL/6J mouse BMDM cells assessed as suppression of osteoclast nuclei number measured after 7 days by F-actin ring-TRITC phalloidin staining based analysis; type: functional, cell-based; settings: dose <= 2.0 µM, time 7.0 day
BMDM [17] = assay: Inhibition of osteoclastogenesis in M-CSF/RANKL-induced osteoclast differentiation in C57BL/6J mouse BMDM cells assessed as reduction in p38 phosphorylation at 1 uM measured upto 60 mins by Western blot analysis; type: functional, cell-based
MC3T3-E1 [18] = assay: Effect on osteoblast differentiation in mouse MC3T3-E1 cells assessed as change in ALP level at 0.5 to 2 uM incubated for 7 days by inverted microscopy; type: functional, cell-based; settings: dose 0.5-2 µM, time 7.0 day
[19] = Cytotoxicity against C57BL/6J mouse BMDM cells assessed as decrease in cell viability at 20 uM incubated for 48 hrs by MTT assay; type: toxicity, cell-based
BMDM [20] = assay: Inhibition of osteoclastogenesis in M-CSF/RANKL-induced osteoclast differentiation in C57BL/6J mouse BMDM cells assessed as reduction in ERK phosphorylation at 1 uM measured upto 60 mins by Western blot analysis; type: functional, cell-based
MC3T3-E1 [21] = assay: Effect on osteoblast differentiation in mouse MC3T3-E1 cells assessed as change in BMP2 mRNA level at 0.5 to 2 uM incubated for 7 days by qRT-PCR analysis; type: functional, cell-based; settings: dose 0.5-2 µM, time 7.0 day
BMDM [22] = assay: Inhibition of osteoclastogenesis in M-CSF/RANKL-induced osteoclast differentiation in C57BL/6J mouse BMDM cells assessed as reduction in cathepsin K mRNA level measured after 5 days by qRT-PCR analysis; type: functional, cell-based; settings: dose <= 2.0 µM, time 5.0 day
MC3T3-E1 [23] = assay: Effect on osteoblast differentiation in mouse MC3T3-E1 cells assessed as change in Runx2 mRNA level at 0.5 to 2 uM incubated for 7 days by qRT-PCR analysis; type: functional, cell-based; settings: dose 0.5-2 µM, time 7.0 day
MC3T3-E1 [24] = assay: Effect on osteoblast differentiation in mouse MC3T3-E1 cells assessed as change in collagen I level at 0.5 to 2 uM incubated for 7 days by Western blot analysis; type: functional, cell-based; settings: dose 0.5-2 µM, time 7.0 day
BMDM [25] = assay: Inhibition of osteoclastogenesis in M-CSF/RANKL-induced osteoclast differentiation in C57BL/6J mouse BMDM cells assessed as reduction in I-kappaB-alpha phosphorylation at 1 uM measured upto 60 mins by Western blot analysis; type: functional, cell-based
BMDM [26] = assay: Effect in ERK level in M-CSF/RANKL-induced osteoclast differentiation in C57BL/6J mouse BMDM cells at 1 uM measured upto 60 mins by Western blot analysis; type: functional, cell-based
RAW264.7 = assay: Cytotoxicity against mouse RAW264.7 cells assessed as decrease in cell viability at 1 uM incubated for 48 hrs by MTT assay; type: toxicity, cell-based; settings: raw264.7, 48 h
BMDM [27] = assay: Inhibition of osteoclastogenesis in M-CSF/RANKL-induced osteoclast differentiation in C57BL/6J mouse BMDM cells assessed as reduction in MMP-9 level measured after 5 days by Western blot analysis; type: functional, cell-based; settings: dose <= 2.0 µM, time 5.0 day

O=C1C([Se]c2ccccc2)=C([Se]c2ccccc2)C(=O)N1Cc1ccccc1
inhibition (BMDM [1]): Dose-dependent-effect
Activity [2]: 1.51 µM
Activity (MC3T3-E1 [3]): No effect
Activity (MC3T3-E1 [4]): No effect
Activity (Mus musculus [5]): Active; Displayed Similar Effect With That Exhibited By Alendronate
Activity (Mus musculus [6]): Active; Displayed Similar Effect With That Exhibited By Alendronate
Activity (MC3T3-E1 [7]): No effect
inhibition (BMDM [8]): Active
inhibition (BMDM [9]): Dose-dependent-effect
inhibition (BMDM [10]): Dose-dependent-effect
inhibition (BMDM [11]): Active
Activity [12]: Non-toxic
Activity [13]: Non-toxic
Kd [14]: 920 nM
inhibition (BMDM [15]): Dose-dependent-effect
inhibition (BMDM [16]): Dose-dependent-effect
inhibition (BMDM [17]): Active
Activity (MC3T3-E1 [18]): No effect
Activity [19]: Non-toxic
inhibition (BMDM [20]): Active
Activity (MC3T3-E1 [21]): No effect
inhibition (BMDM [22]): Dose-dependent-effect
Activity (MC3T3-E1 [23]): No effect
Activity (MC3T3-E1 [24]): No effect
inhibition (BMDM [25]): Active
Activity (BMDM [26]): No effect
Activity (RAW264.7): Non-toxic
inhibition (BMDM [27]): Dose-dependent-effect
